The subject of one data set is C2C12 cells. Description: Alkaline phosphatase (ALP) activity assay, osteoblastic differentiation of C2C12 cells. It counts as cell-based. The settings on record: 72 h; for potency in inducing C2C12 osteoblastic differentiation compared with CI-994: dose-response 0.1-12.8 μM. How it is done: C2C12 cells were seeded into 24-well plates (1×10^5 cells/well). After culture overnight, the cells were treated with a Wnt activator at 0.8 μM (A) and 1.6 μM (B) for 72 h. The ALP activity was measured by ALP assay kit from AnaSpec (AS-72146). All the values are the average of triple determinations with the s.d. indicated by error bars. *P<0.05, **P<0.01 versus corresponding control value. This experiment is a representation of two such experiments performed with similar data.
C2C12 cells were seeded into 24-well plates (1×10^5 cells/well). After culture overnight, the cells were treated with the noted compounds at 0, 0.1, 0.2, 0.4, 0.8, 1.6, 3.2, 6.4 and 12.8 μM for 72 hours. The ALP activity was measured by ALP assay kit from AnaSpec (AS-72146). All the values are the average of triple determinations with the s.d. indicated by error bars.
Alkaline phosphatase (ALP) activity assay: C2C12 cells in 24-well plates were treated with each individual compound at the indicated concentrations for 72 h. Cells were then harvested for assay of ALP activity with the ALP assay kit (AnaSpec) according to the manufacturers specifications.

Another data set deals with BACE1. Description: BACE1 expression in N2a cells by Western blotting. It counts as cell-based. As to conditions: 24 h. How it is done: (§1) (A,C) N2a cells were treated with CI-994 at the indicated concentration for 24 h, and the levels of β-catenin (A) and BACE1 (C) were examined by Western blotting. (B,D) The band intensity of β-catenin and BACE1 was quantified and normalized to the corresponding signal for actin. The results represented in the histograms are shown as the mean±SD and are the average of three independent experiments. *P<0.05, **P<0.01 versus corresponding control value.
N2a cells were treated with 1015 and 1020 at the indicated concentrations for 24 h. (A) the levels of BACE1 expression were examined by Western blotting. (B) The intensity of BACE1 bands were quantified and normalized to the corresponding signal for actin. The results represented in the histograms are shown as the mean±SD and are the average of 3-4 independent experiments. *P<0.05, **P<0.01 versus corresponding control value.
(§2) Western blotting: Cells in 6-well plates were lysed in 0.5 ml of lysis buffer (phosphate-buffered saline containing 1% Triton X-100, 1× Proteinase inhibitor cocktail Complete, and 1 mM PMSF) at 4° C. for 15 min. Equal quantities of protein were subjected to SDS-PAGE under reducing conditions. Following transfer to immobilon-P transfer membrane, successive incubations with a primary antibody, and a horseradish peroxidase-conjugated secondary antibody or IRDye® 680RD goat anti-rabbit/mouse secondary antibodies were carried out for 60-120 min at room temperature. The immunoreactive proteins were then detected using the ECL system or the Odyssey infrared imaging system (LI-COR). Films showing immunoreactive bands were scanned by Hp Scanjet 5590.
(In western blotting, separated proteins are transferred to a membrane and probed.)

A further data set relates to β-catenin. Description: β-catenin level in N2a cells by Western blotting. It counts as cell-based. The settings on record: 24 h; for β-catenin level: concentration as low as 0.1 μM; for EC50: Mus musculus, 3-4 independent experiments, read-out: EC50 values (X±SD), β-catenin level. How it is done: as §1
N2a cells were treated with 1015, 1011, or 1020 at the indicated concentration for 24 h. (A) the levels of total cellular β-catenin were examined by Western blotting. (B) The intensity of the β-catenin bands were quantified and normalized to the corresponding signal for actin. The results represented in the histograms are shown as the mean±SD and are the average of 3-4 independent experiments, and the EC50 values were calculated with graphpad prism.
as §2

The nature of data set [1]: Aqueous (kinetic) solubility assay in PBS pH 7.4. It counts as physicochemical. The settings on record: phosphate-buffered saline, 25 °C, pH 7.4, aqueous buffer, kinetic from dmso stock, PBS pH 7.4, 2% DMSO, two hours, assay range 2-200 μM. How it is done:
Aqueous solubility assay: Using a 10 mM stock solution of the compound in 100% DMSO, dilutions were prepared to a theoretical concentration of 200 μM in duplicates in phosphate-buffered saline pH 7.4 with 2% final DMSO. In parallel, compound dilutions in 50% acetonitrile/PBS were prepared to theoretical concentrations of 0 μM (blank), 50 μM, 100 μM and 200 μM with 2% final DMSO to generate calibration curves. The experimental compound dilutions in PBS were further allowed to equilibrate at 25° C. on a thermostatic orbital shaker for two hours and then centrifuged at 14000 rpm, 5 min and filtered through HTS filter plates using a vacuum manifold. The supernatants of test compounds were diluted 2-fold with acetonitrile contained 4% DMSO before measuring. Ondansetron was used as reference compound to control proper assay performance. 200 μl of samples were transferred to 96-well plate and measured in 200-550 nm range with 5 nm step. The effective range of this assay is approximately 2-200 μM and the compounds returning values close to the upper limit of the range may have higher actual solubility (e.g. 5 ? deoxy-5-fluorouddine).

Where [2] appears, read: CI-994 at the indicated concentration.
Where [3] appears, read: read-out: PBS solubility, pH 7.4, μM Exp1.
[4] abbreviates: read-out: PBS solubility, pH 7.4, μM Exp2.
[5] abbreviates: read-out: PBS solubility, pH 7.4, μM Mean.

Converted amounts (≈) assume the structure as drawn. Like-named read-outs stand apart in the source and are kept apart here.

Consider `CC(=O)Nc1ccc(C(=O)Nc2ccccc2N)cc1` [CI-994, 4-(acetylamino)-N-(2-aminophenyl)benzamide, reference compound], for which the ALP activity entry with C2C12 cells (C2C12 cells, 0.8 μM and 1.6 μM) was “significantly enhanced”. Further, the BACE1 expression entry in the data set on BACE1 (setting [2]) is “deceased”. For the same molecule, the β-catenin levels entry with β-catenin (setting [2]) was “significantly increased”.

Broadly, the EC50 is the concentration at which the effect is half-maximal. As a reminder, the solubility is how much of the substance goes into solution per volume. For `CC1CCCC(C)N1CCNC(=O)c1ccc(C(=O)Nc2ccccc2N)nc1` (stereo not shown) [Compound 1011], the “potency in inducing C2C12 osteoblastic differentiation compared with CI-994” value with C2C12 cells is “more potent than CI-994”. Moreover, the β-catenin level result in the data set with β-catenin is listed as “significantly enhanced”. Further, the concentration for a half-maximal effect (EC50) in the data set on β-catenin was 930 ± 10 nM. The figures for the solubility at 2 h in data set [1] (setting [3]), in data set [1] (setting [4]) and in data set [1] (setting [5]) were 207 µM (≈ 81.9 µg/mL), 207 µM (≈ 81.9 µg/mL) and no less than 200 µM, respectively.

Regarding `Nc1ccccc1NC(=O)c1ccc(C(=O)NCC2CCN2C2CCCC2)cn1` (stereo not shown) [Compound 1015], in the data set on C2C12 cells, the “potency in inducing C2C12 osteoblastic differentiation compared with CI-994” value is listed as “more potent than CI-994”. Further, the BACE1 expression result in the data set on BACE1 (0.8 μM and 1.6 μM) is given as “significantly inhibited”. For the same molecule, the β-catenin level result in the data set on β-catenin is “significantly enhanced”. Besides, the EC50 in the data set with β-catenin is 960 ± 140 nM. The solubility at 2 h is 210 µM (≈ 82.6 µg/mL) in data set [1] (setting [3]), 211 µM (≈ 83 µg/mL) in data set [1] (setting [4]) and no less than 200 µM in data set [1] (setting [5]).

Take `Nc1ccccc1NC(=O)c1ccc(C(=O)NCCN2CCC3(CCCCC3)CC2)cc1` [Compound 1020]: the BACE1 expression result in the data set with BACE1 (0.8 μM and 1.6 μM) is given as “significantly inhibited”. The β-catenin level result with β-catenin is listed as “significantly enhanced”. Moreover, the EC50 in the data set on β-catenin is 1020 ± 240 nM. Further, the solubility at 2 h in data set [1] (setting [3]) is 200 µM (≈ 86.9 µg/mL); in data set [1] (setting [4]), 205 µM (≈ 89.1 µg/mL); in data set [1] (setting [5]), no less than 200 µM.
